Data as given in patent publication US11512079B2, “Heterocycle substituted pyridine derivative antifungal agents” (Amplyx Pharmaceuticals, Inc., priority 2017, dated 2022).
Values after ≈ are worked out from the molar mass of the structure shown.

How the values were obtained:
Assay type in all cases: cell-based
Candida albicans 90028 = assay: In vitro antifungal assay (Example IX), microdilution broth, MIC; conditions: minimum inhibitory concentration (≥50% inhibition), 35° C., 40-48 h, RPMI1640
How it was run: (§1)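 Yeast inocula (2.5×10^3 cells/mL, RPMI1640) were exposed to twofold compound series reaching 2-0.0019 μg/mL final, per CLSI yeast methodology. Incubation at 35° C. ran 40-48 h for Candida albicans 90028 and 72 h for Cryptococcus neoformans H99. MIC endpoints were confirmed by absorbance at 600 nm.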

[1] = tested on: Cryptococcus neoformans H99; assay: as above; conditions: minimum inhibitory concentration (≥50% inhibition), 35° C., 72 h, RPMI1640
How it was run: as §1

[2] = tested on: Aspergillus fumigatus MYA3626; assay: In vitro antifungal assay (Example IX), microdilution broth, MEC; conditions: minimum effective concentration (shortening of hyphae), 35° C., 40-48 h, RPMI1640
How it was run: (§2)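 Read-out is the minimum effective concentration: lowest compound level causing shorter hyphae than in DMSO controls, echinocandin-style. Broth microdilution used conidia or spores harvested from agar plates, cleared of mycelium and clumps, at a final 1-2×10^4 spores/mL in RPMI1640.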

[3] = tested on: Rhizomucor pusillus 46342; assay: as above; conditions: minimum effective concentration (shortening of hyphae), 35° C., 40-48 h, RPMI1640
How it was run: as §2

Cryptococcus gattii = assay: In vitro antifungal assay (Example IX), microdilution broth, MIC; conditions: minimum inhibitory concentration (≥50% inhibition), 35° C., 72 h (Cryptococcus), RPMI1640
How it was run: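 MIC was determined from OD600 after 72 h at 35 °C for Cryptococcus, in RPMI1640 inoculated at 2.5×10^3 cells/mL. Compounds were tested as a 2-fold series from 2 to 0.0019 μg/mL final, added from DMSO intermediates at a 100-fold dilution.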

Row | Structure (SMILES) | MIC (Candida albicans 90028) [µg/mL] | MIC [1] [µg/mL] | MIC (Cryptococcus gattii) [µg/mL] | minimal effective concentration [2] [µg/mL] | minimal effective concentration [3] [µg/mL]
1 | Nc1ncccc1-c1cc(Cc2ccc(CNc3ccc(F)c(F)c3F)cc2)no1 [compound 193, 3-(3-(4-(((2,3,4-trifluorophenyl)amino)methyl)benzyl)isoxazol-5-yl)pyridin-2-amine] | 0.1 to 1 (≈ 0.244 to 2.44 µM) | 0.1 to 1 (≈ 0.244 to 2.44 µM) | 0.1 to 1 (≈ 0.244 to 2.44 µM) | 0.01 to 0.1 | 0.1 to 1
2 | COc1cc(F)cc(Cc2ccc(Cc3cc(-c4cccnc4N)on3)cc2)c1 [compound 216, 3-(3-(4-(3-fluoro-5-methoxybenzyl)benzyl)isoxazol-5-yl)pyridin-2-amine] | 0.1 to 1 (≈ 0.257 to 2.57 µM) | 0.1 to 1 (≈ 0.257 to 2.57 µM) | 0.1 to 1 (≈ 0.257 to 2.57 µM) | 0.1 to 1 | > 1
3 | Nc1ncccc1-c1cc(Cc2ccc(Cc3cc(F)nc(F)c3)cc2)no1 [compound 261, 3-(3-(4-((2,6-difluoropyridin-4-yl)methyl)benzyl)isoxazol-5-yl)pyridin-2-amine] | 0.1 to 1 (≈ 0.264 to 2.64 µM) | 0.1 to 1 (≈ 0.264 to 2.64 µM) | 0.1 to 1 (≈ 0.264 to 2.64 µM) | 0.1 to 1 | 0.1 to 1
4 | Cc1cc(COc2ccc(Cc3cc(-c4cccnc4N)on3)cc2)no1 [compound 26, 3-(3-(4-((5-methylisoxazol-3-yl)methoxy)benzyl)isoxazol-5-yl)pyridin-2-amine] | 0.1 to 1 (≈ 0.276 to 2.76 µM) | 0.1 to 1 (≈ 0.276 to 2.76 µM) | 0.1 to 1 (≈ 0.276 to 2.76 µM) | 0.01 to 0.1 | > 1
5 | N#Cc1cccc(COc2ccc(Cc3cc(-c4cccnc4N)on3)cc2)n1 [compound 118, 6-((4-((5-(2-aminopyridin-3-yl)isoxazol-3-yl)methyl)phenoxy)methyl)picolinonitrile] | 0.1 to 1 (≈ 0.261 to 2.61 µM) | 0.1 to 1 (≈ 0.261 to 2.61 µM) | 0.1 to 1 (≈ 0.261 to 2.61 µM) | 0.1 to 1 | > 1
6 | Nc1ncccc1-c1cc(Cc2ccc(Cc3cnoc3)cc2)no1 [compound 14, 3-(3-(4-(isoxazol-4-ylmethyl)benzyl)isoxazol-5-yl)pyridin-2-amine] | 0.1 to 1 (≈ 0.301 to 3.01 µM) | 0.1 to 1 (≈ 0.301 to 3.01 µM) | 0.1 to 1 (≈ 0.301 to 3.01 µM) | 0.01 to 0.1 | 0.1 to 1
7 | Nc1ncccc1-c1cc(Cc2ccc(Oc3cccc(F)n3)c(F)c2)no1 [compound 258, 3-(3-(3-fluoro-4-((6-fluoropyridin-2-yl)oxy)benzyl)isoxazol-5-yl)pyridin-2-amine] | 0.1 to 1 (≈ 0.263 to 2.63 µM) | 0.01 to 0.1 (≈ 0.0263 to 0.263 µM) | 0.1 to 1 (≈ 0.263 to 2.63 µM) | 0.01 to 0.1 | 0.1 to 1
8 | Nc1ncccc1-c1cc(Cc2ccc(Oc3cc(F)cc(F)c3)nc2)no1 [compound 81, 3-(3-((6-(3,5-difluorophenoxy)pyridin-3-yl)methyl)isoxazol-5-yl)pyridin-2-amine] | 0.01 to 0.1 (≈ 0.0263 to 0.263 µM) | ≤ 0.01 | 0.01 to 0.1 (≈ 0.0263 to 0.263 µM) | 0.01 to 0.1 | 0.1 to 1
9 | Nc1ncccc1-c1cc(Cc2ccc(Oc3ccc(F)cn3)cc2)no1 [compound 246, 3-(3-(4-((5-fluoropyridin-2-yl)oxy)benzyl)isoxazol-5-yl)pyridin-2-amine] | 0.1 to 1 (≈ 0.276 to 2.76 µM) | 0.01 to 0.1 (≈ 0.0276 to 0.276 µM) | 0.1 to 1 (≈ 0.276 to 2.76 µM) | 0.01 to 0.1 | 0.1 to 1
10 | Nc1ncccc1-c1cc(Cc2ccc(OCC3CCC3)nc2)no1 [compound 57, 3-(3-((6-(cyclobutylmethoxy)pyridin-3-yl)methyl)isoxazol-5-yl)pyridin-2-amine] | 0.01 to 0.1 (≈ 0.0297 to 0.297 µM) | 0.01 to 0.1 (≈ 0.0297 to 0.297 µM) | ≤ 0.01 | 0.01 to 0.1 | 0.1 to 1
11 | CC(C)=CCOc1ccc(Cc2cc(-c3ccc(N)nc3N)on2)cc1 [compound 135, 3-(3-(4-((3-methylbut-2-en-1-yl)oxy)benzyl)isoxazol-5-yl)pyridine-2,6-diamine] | 0.1 to 1 (≈ 0.285 to 2.85 µM) | 0.01 to 0.1 (≈ 0.0285 to 0.285 µM) | 0.1 to 1 (≈ 0.285 to 2.85 µM) | 0.01 to 0.1 | 0.1 to 1
12 | Nc1ncccc1-c1cc(Cc2ccc(OCc3nccs3)cc2)no1 [compound 112, 3-(3-(4-(thiazol-2-ylmethoxy)benzyl)isoxazol-5-yl)pyridin-2-amine] | 0.1 to 1 (≈ 0.274 to 2.74 µM) | 0.01 to 0.1 (≈ 0.0274 to 0.274 µM) | 0.01 to 0.1 (≈ 0.0274 to 0.274 µM) | 0.01 to 0.1 | 0.1 to 1
13 | Nc1ncccc1-c1cc(Cc2ccc(Cc3cccc(F)n3)cc2)no1 [compound 15, 3-(3-(4-((6-fluoropyridin-2-yl)methyl)benzyl)isoxazol-5-yl)pyridin-2-amine] | 0.01 to 0.1 (≈ 0.0277 to 0.277 µM) | 0.01 to 0.1 (≈ 0.0277 to 0.277 µM) | 0.01 to 0.1 (≈ 0.0277 to 0.277 µM) | ≤ 0.01 | 0.1 to 1
14 | Nc1ncccc1-c1cc(Cc2ccc(Oc3cc(F)cc(F)n3)cc2)no1 [compound 239, 3-(3-(4-((4,6-difluoropyridin-2-yl)oxy)benzyl)isoxazol-5-yl)pyridin-2-amine] | 0.1 to 1 (≈ 0.263 to 2.63 µM) | 0.01 to 0.1 (≈ 0.0263 to 0.263 µM) | 0.01 to 0.1 (≈ 0.0263 to 0.263 µM) | 0.1 to 1 | 0.1 to 1
15 | Nc1ncccc1-c1cc(Cc2ccc(Cc3ccoc3)cc2)no1 [compound 120, 3-(3-(4-(furan-3-ylmethyl)benzyl)isoxazol-5-yl)pyridin-2-amine] | 0.01 to 0.1 (≈ 0.0302 to 0.302 µM) | 0.01 to 0.1 (≈ 0.0302 to 0.302 µM) | 0.01 to 0.1 (≈ 0.0302 to 0.302 µM) | ≤ 0.01 | 0.1 to 1
16 | COc1cc(F)cc(NCc2ccc(Cc3cc(-c4cccnc4N)on3)cc2)c1 [compound 201, 3-(3-(4-(((3-fluoro-5-methoxyphenyl)amino)methyl)benzyl)isoxazol-5-yl)pyridin-2-amine] | 0.1 to 1 (≈ 0.247 to 2.47 µM) | 0.1 to 1 (≈ 0.247 to 2.47 µM) | > 1 | 0.1 to 1 | > 1

More lines, main results first:

Row | MIC (Candida albicans 90028) [µg/mL] | MIC [1] [µg/mL] | MIC (Cryptococcus gattii) [µg/mL] | Structure (SMILES) | minimal effective concentration [2] [µg/mL] | minimal effective concentration [3] [µg/mL]
17 | 0.1 to 1 (≈ 0.278 to 2.78 µM) | 0.1 to 1 (≈ 0.278 to 2.78 µM) | 0.1 to 1 (≈ 0.278 to 2.78 µM) | Nc1ncccc1-c1cc(Cc2ccc(OCc3ncccn3)cc2)no1 [compound 28, 3-(3-(4-(pyrimidin-2-ylmethoxy)benzyl)isoxazol-5-yl)pyridin-2-amine] | 0.1 to 1 | > 1
18 | 0.01 to 0.1 (≈ 0.029 to 0.29 µM) | 0.01 to 0.1 (≈ 0.029 to 0.29 µM) | ≤ 0.01 | Nc1ncccc1-c1cc(Cc2ccc(Oc3ccccn3)cc2)no1 [compound 110, 3-(3-(4-(pyridin-2-yloxy)benzyl)isoxazol-5-yl)pyridin-2-amine] | 0.01 to 0.1 | 0.1 to 1
19 | 0.1 to 1 (≈ 0.245 to 2.45 µM) | 0.1 to 1 (≈ 0.245 to 2.45 µM) | 0.1 to 1 (≈ 0.245 to 2.45 µM) | Nc1ncccc1-c1cc(Cc2ccc(OCc3ccc4ccccc4n3)cc2)no1 [compound 27, 3-(3-(4-(quinolin-2-ylmethoxy)benzyl)isoxazol-5-yl)pyridin-2-amine] | > 1 | > 1
20 | 0.01 to 0.1 (≈ 0.0254 to 0.254 µM) | ≤ 0.01 | 0.01 to 0.1 (≈ 0.0254 to 0.254 µM) | Nc1ncccc1-c1cc(Cc2ccc(OCc3ccnc(Cl)c3)nc2)no1 [compound 83, 3-(3-((6-((2-chloropyridin-4-yl)methoxy)pyridin-3-yl)methyl)isoxazol-5-yl)pyridin-2-amine] | 0.01 to 0.1 | > 1
21 | 0.1 to 1 (≈ 0.312 to 3.12 µM) | 0.1 to 1 (≈ 0.312 to 3.12 µM) | 0.1 to 1 (≈ 0.312 to 3.12 µM) | C#CCCOc1ccc(Cc2cc(-c3cccnc3N)on2)cn1 [compound 225, 3-(3-((6-(but-3-yn-1-yloxy)pyridin-3-yl)methyl)isoxazol-5-yl)pyridin-2-amine] | 0.01 to 0.1 | 0.1 to 1
22 | 0.1 to 1 (≈ 0.28 to 2.8 µM) | 0.01 to 0.1 (≈ 0.028 to 0.28 µM) | 0.01 to 0.1 (≈ 0.028 to 0.28 µM) | Nc1ncccc1-c1cnn(Cc2ccc(OCc3ccccc3)nc2)c1 [compound 101, 3-(1-((6-(benzyloxy)pyridin-3-yl)methyl)-1H-pyrazol-4-yl)pyridin-2-amine] | 0.1 to 1 | > 1
23 | > 1 | > 1 | > 1 | Nc1ncccc1-c1cc(Cc2ccc(OCc3ccn4ccnc4c3)nc2)no1 [compound 206, 3-(3-((6-(imidazo[1,2-a]pyridine-7-ylmethoxy)pyridin-3-yl)methyl)isoxazol-5-yl)pyridin-2-amine] | > 1 | > 1
24 | 0.1 to 1 (≈ 0.255 to 2.55 µM) | 0.01 to 0.1 (≈ 0.0255 to 0.255 µM) | ≤ 0.01 | Nc1ncccc1-c1cc(Cc2ccc(OCc3ccnc(Cl)c3)cc2)no1 [compound 117, 3-(3-(4-((2-chloropyridin-4-yl)methoxy)benzyl)isoxazol-5-yl)pyridin-2-amine] | 0.01 to 0.1 | > 1
25 | 0.01 to 0.1 (≈ 0.0287 to 0.287 µM) | > 1 | > 1 | Nc1ncccc1-c1cc(Cc2ccc(OCc3ccco3)nc2)no1 [compound 73, 3-(3-((6-(furan-2-ylmethoxy)pyridin-3-yl)methyl)isoxazol-5-yl)pyridin-2-amine] | 0.1 to 1 | > 1
26 | 0.01 to 0.1 (≈ 0.0266 to 0.266 µM) | 0.1 to 1 (≈ 0.266 to 2.66 µM) | 0.01 to 0.1 (≈ 0.0266 to 0.266 µM) | Nc1ncccc1-c1cc(Cc2ccc(COc3ccccc3F)cc2)no1 [Example 168, 3-(3-(4-((2-fluorophenoxy)methyl)benzyl)isoxazol-5-yl)pyridin-2-amine] | 0.01 to 0.1 | 0.1 to 1
